According to the supplement of paper PMC10307832:

Experiments:
Test in all cases: relative viability (nuclei count vs DMSO), 5 days (fraction); higher = more cells survive
[1] = tested on: EMC-BAC-2
Outline: (§1)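 Medians of duplicate plates are given as relative viability. That measure is the nuclei count in treated wells divided by the count in vehicle wells. Counts were taken on 4× images of lung cancer cell lines in 1536-well plates, 5 days after pin-tool dosing the day after seeding with one drug alone or a fixed anchor-drug dose plus five library-drug doses (not always all listed) in √10 steps.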

[2] = tested on: NCI-H2009
Outline: as §1

[3] = tested on: NCI-H727
Outline: as §1

[4] = tested on: NCI-H1993
Outline: as §1

[5] = tested on: EPLC-272H
Outline: as §1

[6] = tested on: NCI-H1915
Outline: as §1

[7] = tested on: LXF-289
Outline: as §1

[8] = tested on: NCI-H2023
Outline: as §1

[9] = tested on: NCI-H2347
Outline: as §1

[10] = tested on: NCI-H647
Outline: as §1

[11] = tested on: HOP-62
Outline: as §1

[12] = tested on: NCI-H2126
Outline: as §1

[13] = tested on: LCLC-97TM1
Outline: as §1

[14] = tested on: NCI-H322M
Outline: as §1

[15] = tested on: NCI-H2085
Outline: as §1

[16] = tested on: NCI-H1734
Outline: as §1

[17] = tested on: NCI-H1563
Outline: as §1

[18] = tested on: PC-14
Outline: as §1

[19] = tested on: SW 1573
Outline: as §1

[20] = tested on: NCI-H661
Outline: as §1

[21] = tested on: SK-LU-1
Outline: as §1

[22] = tested on: H3255
Outline: as §1

## COc1nc(C)cnc1NS(=O)(=O)c1cccnc1-c1ccc(-c2nnco2)cc1 [Zibotentan] + CCNC(=O)c1noc(-c2cc(C(C)C)c(O)cc2O)c1-c1ccc(CN2CCOCC2)cc1 [Luminespib] (partner 0.01 µM)
[1]; first compound 0.08 µM
  relative viability: 1.3
[1]; first compound 0.8 µM
  relative viability: 1.13
[1]; first compound 2.53 µM
  relative viability: 1.22
[2]; first compound 0.08 µM
  relative viability: 0.959
[2]; first compound 0.253 µM
  relative viability: 1.03
[2]; first compound 0.8 µM
  relative viability: 1.08
[2]; first compound 2.53 µM
  relative viability: 1
[3]; first compound 0.08 µM
  relative viability: 0.289
[3]; first compound 0.253 µM
  relative viability: 0.316
[3]; first compound 0.8 µM
  relative viability: 0.83
[3]; first compound 2.53 µM
  relative viability: 0.325
[4]; first compound 0.08 µM
  relative viability: 0.667
[4]; first compound 0.253 µM
  relative viability: 0.978
[4]; first compound 0.8 µM
  relative viability: 0.839
[4]; first compound 2.53 µM
  relative viability: 0.949
[5]; first compound 0.08 µM
  relative viability: 0.234
[5]; first compound 0.253 µM
  relative viability: 0.376
[5]; first compound 0.8 µM
  relative viability: 0.272
[5]; first compound 2.53 µM
  relative viability: 0.254
[6]; first compound 0.08 µM
  relative viability: 0.939
[6]; first compound 0.253 µM
  relative viability: 0.873
[6]; first compound 0.8 µM
  relative viability: 0.754
[6]; first compound 2.53 µM
  relative viability: 0.809
[7]; first compound 0.08 µM
  relative viability: 0.657
[7]; first compound 0.253 µM
  relative viability: 0.683
[7]; first compound 0.8 µM
  relative viability: 0.627
[7]; first compound 2.53 µM
  relative viability: 0.756
[8]; first compound 0.08 µM
  relative viability: 0.856
[8]; first compound 0.253 µM
  relative viability: 0.455
[8]; first compound 0.8 µM
  relative viability: 0.645
[8]; first compound 2.53 µM
  relative viability: 0.799
[9]; first compound 0.253 µM
  relative viability: 0.382
[9]; first compound 0.8 µM
  relative viability: 0.426
[9]; first compound 2.53 µM
  relative viability: 0.452
[10]; first compound 0.08 µM
  relative viability: 0.244
[10]; first compound 0.253 µM
  relative viability: 0.16
[10]; first compound 0.8 µM
  relative viability: 0.185
[10]; first compound 2.53 µM
  relative viability: 0.164
[11]; first compound 0.08 µM
  relative viability: 0.911
[11]; first compound 0.253 µM
  relative viability: 0.869
[11]; first compound 0.8 µM
  relative viability: 0.906
[11]; first compound 2.53 µM
  relative viability: 0.956
[12]; first compound 0.08 µM
  relative viability: 0.978
[12]; first compound 0.8 µM
  relative viability: 0.896
[12]; first compound 2.53 µM
  relative viability: 0.919
[13]; first compound 0.08 µM
  relative viability: 0.948
[13]; first compound 0.253 µM
  relative viability: 0.759
[13]; first compound 0.8 µM
  relative viability: 0.927
[13]; first compound 2.53 µM
  relative viability: 0.692
[14]; first compound 0.08 µM
  relative viability: 0.876
[14]; first compound 0.253 µM
  relative viability: 0.474
[14]; first compound 0.8 µM
  relative viability: 0.897
[14]; first compound 2.53 µM
  relative viability: 0.918
[15]; first compound 0.08 µM
  relative viability: 0.386
[15]; first compound 0.253 µM
  relative viability: 0.423
[15]; first compound 0.8 µM
  relative viability: 0.42
[15]; first compound 2.53 µM
  relative viability: 0.463
[16]; first compound 0.08 µM
  relative viability: 0.19
[16]; first compound 0.253 µM
  relative viability: 0.164
[16]; first compound 0.8 µM
  relative viability: 0.195
[16]; first compound 2.53 µM
  relative viability: 0.262
[17]; first compound 0.08 µM
  relative viability: 0.474
[17]; first compound 0.253 µM
  relative viability: 0.499
[17]; first compound 0.8 µM
  relative viability: 0.552
[17]; first compound 2.53 µM
  relative viability: 0.559
[18]; first compound 0.08 µM
  relative viability: 0.135
[18]; first compound 0.8 µM
  relative viability: 0.151
[18]; first compound 2.53 µM
  relative viability: 0.128
[19]; first compound 0.08 µM
  relative viability: 0.341
[19]; first compound 0.8 µM
  relative viability: 0.348
[19]; first compound 2.53 µM
  relative viability: 0.269
[20]; first compound 0.08 µM
  relative viability: 0.953
[20]; first compound 0.253 µM
  relative viability: 0.836
[20]; first compound 0.8 µM
  relative viability: 0.922
[20]; first compound 2.53 µM
  relative viability: 0.922
[21]; first compound 0.08 µM
  relative viability: 0.236
[21]; first compound 0.253 µM
  relative viability: 0.171
[21]; first compound 0.8 µM
  relative viability: 0.213
[21]; first compound 2.53 µM
  relative viability: 0.194
[22]; first compound 0.08 µM
  relative viability: 0.996
[22]; first compound 0.253 µM
  relative viability: 0.839
[22]; first compound 0.8 µM
  relative viability: 0.899
[22]; first compound 2.53 µM
  relative viability: 0.799
